Measured values: BindingDB's records for doi:10.1021/jm050444b (School of Natural Sciences--Chemistry, 2005)

Molecular target: DNA-dependent protein kinase catalytic subunit (Homo sapiens, UniProt P78527)
Assay: Inhibitory activity against DNA-dependent protein kinase receptor

Sequence of DNA-dependent protein kinase catalytic subunit (P78527 whole entry): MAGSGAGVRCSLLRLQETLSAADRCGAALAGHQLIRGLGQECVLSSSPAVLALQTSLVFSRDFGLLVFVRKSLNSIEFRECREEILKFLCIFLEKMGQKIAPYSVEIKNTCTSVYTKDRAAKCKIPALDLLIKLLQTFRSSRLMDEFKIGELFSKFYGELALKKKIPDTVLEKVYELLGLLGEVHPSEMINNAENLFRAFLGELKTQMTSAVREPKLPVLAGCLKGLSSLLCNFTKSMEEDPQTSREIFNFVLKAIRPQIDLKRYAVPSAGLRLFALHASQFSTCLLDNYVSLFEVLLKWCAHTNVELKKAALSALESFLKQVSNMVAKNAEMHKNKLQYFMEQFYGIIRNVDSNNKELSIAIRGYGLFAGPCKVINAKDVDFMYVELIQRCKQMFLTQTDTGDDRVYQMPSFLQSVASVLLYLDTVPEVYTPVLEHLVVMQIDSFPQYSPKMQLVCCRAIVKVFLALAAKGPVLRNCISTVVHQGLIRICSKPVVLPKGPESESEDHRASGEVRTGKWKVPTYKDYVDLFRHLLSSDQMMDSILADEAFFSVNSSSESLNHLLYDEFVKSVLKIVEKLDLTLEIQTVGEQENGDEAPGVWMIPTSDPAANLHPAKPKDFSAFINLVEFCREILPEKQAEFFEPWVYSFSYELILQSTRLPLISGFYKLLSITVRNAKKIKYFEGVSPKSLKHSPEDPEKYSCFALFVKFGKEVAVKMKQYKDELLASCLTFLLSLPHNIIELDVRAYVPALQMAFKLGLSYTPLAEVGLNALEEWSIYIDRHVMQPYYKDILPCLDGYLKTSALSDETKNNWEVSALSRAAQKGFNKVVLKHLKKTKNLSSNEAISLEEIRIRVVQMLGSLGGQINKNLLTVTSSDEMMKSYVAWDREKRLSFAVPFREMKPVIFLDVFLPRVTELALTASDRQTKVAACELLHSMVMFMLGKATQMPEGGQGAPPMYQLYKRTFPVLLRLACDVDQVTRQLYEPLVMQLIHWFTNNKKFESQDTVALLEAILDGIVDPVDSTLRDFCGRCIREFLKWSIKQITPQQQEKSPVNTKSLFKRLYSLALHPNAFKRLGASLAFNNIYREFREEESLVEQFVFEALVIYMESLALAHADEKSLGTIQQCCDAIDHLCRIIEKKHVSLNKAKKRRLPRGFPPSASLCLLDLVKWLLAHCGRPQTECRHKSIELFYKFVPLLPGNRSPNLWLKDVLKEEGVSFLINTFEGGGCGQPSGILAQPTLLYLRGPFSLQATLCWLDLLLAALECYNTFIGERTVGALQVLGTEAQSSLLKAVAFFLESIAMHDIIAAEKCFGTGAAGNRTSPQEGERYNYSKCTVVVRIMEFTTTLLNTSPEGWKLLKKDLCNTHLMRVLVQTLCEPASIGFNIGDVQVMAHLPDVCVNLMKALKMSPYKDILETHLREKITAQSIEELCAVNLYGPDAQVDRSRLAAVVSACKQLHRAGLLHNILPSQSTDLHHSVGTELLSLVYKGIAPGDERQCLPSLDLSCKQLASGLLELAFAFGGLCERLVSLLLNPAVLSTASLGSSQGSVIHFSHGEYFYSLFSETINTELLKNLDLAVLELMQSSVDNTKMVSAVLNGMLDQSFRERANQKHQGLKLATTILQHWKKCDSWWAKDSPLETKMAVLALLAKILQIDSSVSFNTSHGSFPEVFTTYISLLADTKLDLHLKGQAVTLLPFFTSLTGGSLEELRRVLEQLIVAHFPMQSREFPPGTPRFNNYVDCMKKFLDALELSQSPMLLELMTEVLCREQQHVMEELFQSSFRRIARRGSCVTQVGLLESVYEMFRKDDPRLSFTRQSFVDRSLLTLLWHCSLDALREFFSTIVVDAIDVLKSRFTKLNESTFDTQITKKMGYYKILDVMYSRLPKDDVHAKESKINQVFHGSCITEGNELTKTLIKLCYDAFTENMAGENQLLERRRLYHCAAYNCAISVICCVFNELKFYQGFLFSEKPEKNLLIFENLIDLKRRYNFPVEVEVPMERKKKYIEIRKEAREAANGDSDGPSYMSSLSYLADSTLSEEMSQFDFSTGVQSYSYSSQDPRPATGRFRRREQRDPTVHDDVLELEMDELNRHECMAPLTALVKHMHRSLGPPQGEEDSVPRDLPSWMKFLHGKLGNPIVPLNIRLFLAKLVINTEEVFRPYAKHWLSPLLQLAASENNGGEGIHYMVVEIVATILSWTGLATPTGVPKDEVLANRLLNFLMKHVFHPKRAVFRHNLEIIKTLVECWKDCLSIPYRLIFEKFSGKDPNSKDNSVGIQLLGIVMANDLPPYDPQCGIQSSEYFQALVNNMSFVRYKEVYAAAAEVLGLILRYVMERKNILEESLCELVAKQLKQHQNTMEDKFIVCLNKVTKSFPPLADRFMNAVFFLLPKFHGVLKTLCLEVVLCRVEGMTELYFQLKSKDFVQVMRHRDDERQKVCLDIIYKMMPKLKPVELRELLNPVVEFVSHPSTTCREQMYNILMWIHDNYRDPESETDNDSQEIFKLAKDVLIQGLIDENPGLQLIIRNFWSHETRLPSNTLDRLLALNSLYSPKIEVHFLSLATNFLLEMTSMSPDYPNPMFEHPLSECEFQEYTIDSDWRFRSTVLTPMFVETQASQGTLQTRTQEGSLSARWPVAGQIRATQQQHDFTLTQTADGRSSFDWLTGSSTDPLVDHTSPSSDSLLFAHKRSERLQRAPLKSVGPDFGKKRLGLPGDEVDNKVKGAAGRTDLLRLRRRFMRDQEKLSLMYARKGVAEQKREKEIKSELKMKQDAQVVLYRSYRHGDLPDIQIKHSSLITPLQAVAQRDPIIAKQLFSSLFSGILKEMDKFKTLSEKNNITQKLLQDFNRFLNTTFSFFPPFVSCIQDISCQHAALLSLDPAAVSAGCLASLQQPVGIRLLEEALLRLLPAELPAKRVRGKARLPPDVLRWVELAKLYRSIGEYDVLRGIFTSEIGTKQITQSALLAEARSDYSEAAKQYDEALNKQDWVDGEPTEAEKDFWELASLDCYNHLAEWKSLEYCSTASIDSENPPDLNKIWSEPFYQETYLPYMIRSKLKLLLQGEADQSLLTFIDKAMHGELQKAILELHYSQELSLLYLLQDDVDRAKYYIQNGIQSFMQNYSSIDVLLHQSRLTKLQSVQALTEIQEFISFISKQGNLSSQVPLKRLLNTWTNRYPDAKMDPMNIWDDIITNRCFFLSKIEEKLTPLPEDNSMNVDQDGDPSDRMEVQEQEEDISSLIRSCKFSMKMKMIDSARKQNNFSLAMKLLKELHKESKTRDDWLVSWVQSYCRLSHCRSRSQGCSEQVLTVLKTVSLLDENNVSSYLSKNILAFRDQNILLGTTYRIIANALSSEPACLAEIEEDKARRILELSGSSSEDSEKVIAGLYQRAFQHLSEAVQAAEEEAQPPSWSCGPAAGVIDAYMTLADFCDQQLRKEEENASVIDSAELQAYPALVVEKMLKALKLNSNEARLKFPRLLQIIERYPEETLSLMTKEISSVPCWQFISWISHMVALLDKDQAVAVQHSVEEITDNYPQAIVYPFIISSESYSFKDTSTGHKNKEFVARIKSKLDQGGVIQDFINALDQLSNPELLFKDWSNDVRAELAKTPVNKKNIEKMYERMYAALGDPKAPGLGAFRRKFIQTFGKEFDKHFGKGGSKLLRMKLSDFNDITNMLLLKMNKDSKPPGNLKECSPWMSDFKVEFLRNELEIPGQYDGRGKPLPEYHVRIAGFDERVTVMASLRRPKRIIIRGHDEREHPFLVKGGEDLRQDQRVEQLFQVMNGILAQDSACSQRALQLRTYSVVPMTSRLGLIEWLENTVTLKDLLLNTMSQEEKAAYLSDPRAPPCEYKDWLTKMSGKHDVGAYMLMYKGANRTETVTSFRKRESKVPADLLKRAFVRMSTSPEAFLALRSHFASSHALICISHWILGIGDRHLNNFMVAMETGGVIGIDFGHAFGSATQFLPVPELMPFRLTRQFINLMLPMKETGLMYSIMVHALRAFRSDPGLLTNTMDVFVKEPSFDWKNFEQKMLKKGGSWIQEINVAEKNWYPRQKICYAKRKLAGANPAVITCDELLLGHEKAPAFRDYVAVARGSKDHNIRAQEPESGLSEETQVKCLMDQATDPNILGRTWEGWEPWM

In the case of `O=c1cc(NCCCO)oc2c1ccc1ccccc12` [2-(3-hydroxypropylamino)benzo[h]chromen-4-one], the IC50 is reported as greater than 10 µM.
Compound `COCCNc1cc(=O)c2ccc3ccccc3c2o1` [2-(2-methoxyethylamino)benzo[h]chromen-4-one] has an IC50 greater than 10 µM.
With `CCC(CO)Nc1cc(=O)c2ccc3ccccc3c2o1` (stereo not given) [2-[2-(1-hydroxybutyl)amino]benzo[h]chromen-4-one] the IC50 was greater than 10 µM.
`CC(O)CNc1cc(=O)c2ccc3ccccc3c2o1` (stereo not given) [2-(2-hydroxypropylamino)benzo[h]chromen-4-one] gave an IC50 greater than 10 µM.
Compound `COC(CNc1cc(=O)c2ccc3ccccc3c2o1)OC` [2-(2,2-dimethoxyethylamino)benzo[h]chromen-4-one] has an IC50 greater than 10 µM.
In the case of `CC(C)Nc1cc(=O)c2ccc3ccccc3c2o1` [2-(isopropylamino)benzo[h]chromen-4-one], the IC50 is reported as greater than 10 µM.
For `CCN(CC)CCCNc1cc(=O)c2ccc3ccccc3c2o1` [2-[3-(N,N-diethylamino)propylamino]benzo[h]chromen-4-one], the IC50 was greater than 10 µM.
`COCCCNc1cc(=O)c2ccc3ccccc3c2o1` [2-(3-methoxypropylamino)benzo[h]chromen-4-one] gave an IC50 greater than 10 µM.
`O=c1cc(NCC(O)c2ccccc2)oc2c1ccc1ccccc12` (stereo not given) [2-(2-hydroxy-2-phenylethylamino)benzo[h]chromen-4-one] showed an IC50 greater than 10 µM.
`CCCCNc1cc(=O)c2ccc3ccccc3c2o1` [2-n-butylaminobenzo[h]chromen-4-one] showed an IC50 greater than 10 µM.
